# Tests used:
# [1] = tested on: phosphoinositol turnover in neonatal rat cardiomyocytes; assay: Phosphoinositol turnover in primary cardiomyocyte cultures; assay type: cell-based; conditions: 100 nM + noradrenaline 300 nM
# Method: Neonatal Wistar rats (1-2 days old) are used. Hank's calcium- and magnesium-free balanced salt solution, buffered with 10 mM HEPES is used for washing during cell separation procedures. The hearts are excised, the ventricles isolated and the tissue cut into small pieces. The myocardial cells are isolated by stepwise enzymatic degradation with collagenase 0.05%, as described by ^[35]. After repeated rounds of centrifugation and washing, the precipitated cells are resuspended in culture medium M199 with Earle's salt, 10% NCS, penicillin (75 U/mL), and streptomycin (75 U/mL) and pre-plated in a Petri dish for 90 minutes. The non-adherent cells are collected in the culture medium and plated in multidishes at 2.5*10^5 cells/well. The cultures are kept in a water-saturated CO2-incubator at 37° C. The cardiomyocyte cultures are used for analyses after 6-7 days.
# Cardiomyocyte cultures are incubated for 48 hours in culture medium containing 4 μCi/mL myo-[2-^3H]inositol to label the inositol phospholipids. On the day of analysis the medium is replaced by a buffer solution containing lithium and incubated at 37° C., as described by Meier et al.^[36]. After at least five minutes this buffer is replaced by the same volume of buffer containing test compound and incubated for exactly 20 minutes. The reaction is stopped by rapid replacement of the buffer by ice cold 4% v/v perchloric acid (PCA) and incubation for at least 20 minutes at 0° C. The PCA-extract is neutralised and the [^3H]inositol phosphates are separated by anion-exchange chromatography using Amprep™ columns containing 100 mg SAX Quaternary amine. The [^3H]inositol mono-phosphates are eluted and radioactivity in the fraction measured by liquid scintillation counting.
# Before adding test substances to the cultures, the cells are depleted of glucose and oxygen by incubating them in a N2-atmosphere in glucose-free lithium-buffer for 10 minutes at 37° C. Control cells are incubated likewise only at normal atmospheric conditions and in a buffer containing glucose.
# [2] = tested on: reentry ventricular tachycardia; assay: Ventricular reentry arrhythmias in dogs after coronary artery occlusion; assay type: in vivo, dog; conditions: after the lowest dose (bolus 0.1 μg/kg; infusion 2 ng/kg/min) i.v.
# Method: Three dogs were studied in the anesthetized, open chest state to facilitate electrode placement for mapping. α-chloralose was given as a bolus (200 mg/kg) and then a constant infusion at 8 mg/kg/hr (dissolved in polyethylene glycol, MW=200). The femoral vein and artery was cannulated for administration of fluid and drugs and for measurement of ascending aortic pressure, respectively.
# The sinus node was clamped and the atrial appendage was paced with a programmable stimulator with constant current outputs at two times diastolic threshold. Pacing rate was ≧200 b/min to control heart rates. […] Late ventricular diastolic threshold was measured during each intervention; the pacing current was four times threshold.
# Test sites were chosen along the shaft of 16 pole needles (J. Kassell, Fayetteville, N.C.); each pole completely surrounds the needle shaft to prevent directionality of needle orientation from recording of adjacent Purkinje strands. Six bipolar electrograms (1 mm spacing) were recorded sequentially down the shaft of the needle by amplifying up to 1000 times, filtering from 3-1300 Hz and recording via oscilloscope during atrial pacing. Four intramural electrograms are recorded on each multipolar needle. […] Inter-needle distance measured on epicardium varies over 6-10 mm in dogs weighing 12-16 kg. […]
# [3] = tested on: phosphoinositol turnover in neonatal rat cardiomyocytes; conditions: conference abstract, cited from earlier work
# human osteoblastic cells = assay: Intercellular calcium waves after mechanical stimulation, human osteoblastic cells; assay type: cell-based
# Method: (§1) Human osteblast cells (hOB): Cells were isolated from human bone marrow obtained by puncture of the posterior iliac spine of healthy volunteers (aged 20-36): 10-15 ml marrow material was collected in 15 ml PBS+Ca,Mg (Life Technologies, Cat.No. 14040) with 100 U/ml Heparin (Sigma, Cat.No. H-3149). The mononuclear fraction of the marrow was isolated on a Lymphoprep gradient (Nycomed Pharma, Cat.No. 1001967), by centrifugation at 2200 rpm for 30 min. After harvesting, the mononuclear fraction was washed once with culture medium and centrifuged at 1800 rpm for 10 min. Subsequently cells were counted and plated in culture medium at 8×10^6 cells/100 mm dish. hOB medium (all reagents obtained from Life Technologies): MEM w/o Phenol Red w/Glutamax (Cat.No. 041-93013) supplemented with 10% heat inactivated fetal calf serum (Cat.No. 10106) and 0.1% Penicillin/Streptomycin (Cat.No. 15140). Medium was changed the following day and the cells were cultured at 37° C. in 5% CO2 with medium change every 7 days. After 3-4 weeks of culture the cells had reached 70% confluence. The medium was then supplemented with 100 nM Dexamethasone (Sigma, Cat.No. D-4902) for 7 days. Cells were then plated for video imaging experiments: a 25 mm #1 glass coverslip was placed in a 35 mm dish (or each well of a 6-well multidish), cells were plated at 2.5×10^5 cells/coverslip and cultured for 2-3 days before use. […]
# human osteoblast [4] = assay: Lucifer Yellow microinjection dye transfer, human osteoblasts; assay type: cell-based; conditions: 48 hours hypoxia 3-6% O2; 10 minutes incubation; 7 cells before
# Method: as §1
# human osteoblast [5] = conditions: human osteoblast cultures and rat osteosarcoma cell lines; conference abstract; cited from earlier work
substance,measurement,setting,value
Ac-D-Tyr-D-Pro-D-4Hyp-Gly-D-Ala-Gly-NH2 [Compound 2],increase in phospho-inositol turnover above the increase effected by noradrenaline alone,[1]; anoxia and glucose deprivation,about 70%
same,effect on noradrenaline induced increase in phospho-inositol turnover,[1]; control conditions,no further effect
same,inducibility of epicardial reentry VT,[2],no longer inducible
same,noradrenalin-induced level of PI turnover,[3]; normal athmospheric and nutritional conditions,do not alter
same,"noradrenalin-induced PI turnover, % of the normal level",[3]; oxygen and glucose deprivation,~90%
same,average number of cells in the calcium wave,"human osteoblastic cells; after ATP desensitization, 10^−8 mol/l, 10 minutes, 4.5 cells before",6.2 cells
same,average number of cells in the calcium wave,"human osteoblastic cells; medium without glucose, 10^−8 M, 1.4 cells before",2.9 cells
same,"dye transfer, number of cells",human osteoblast [4],9 cells
same,hypoxia-induced decrease of intercellular communication,human osteoblast [5],completely reversed
